Broadly, the Ki is a dissociation constant, usually derived from enzyme kinetics or from competition with a known ligand. What is called IC50 is the concentration that inhibits the measured activity by half.

The nature of the test: Inhibition of HCV genotype 1b NS3/NS4A protease using DDIVPCSMSYTW as substrate by radiometric enzymatic assay. The arrangement: species or system Hepatitis C virus subtype 1b.

Non-standard residues stand in square brackets, D forms with d. Residues, ends and D or L forms follow the SMILES beside them. *: point of attachment. Hyp = O=C(O)[C@@H]1C[C@@H](O)CN1; Nva = CCC[C@H](N)C(=O)O; Bn = c1ccc(C*)cc1

The compound `C=C[C@@H]1C[C@]1(NC(=O)[C@@H]1C[C@@H](Oc2cc(-c3ccccc3)nc3cc(OC)ccc23)CN1C(=O)[C@@H](NC(=O)OC(C)(C)C)C(C)(C)C)C(=O)O` had a Ki of 20 nM.

`C=C[C@@H]1C[C@]1(NC(=O)[C@@H]1C[C@@H](Oc2cc(-c3ccccc3)nc3cc(OC)ccc23)CN1C(C)=O)C(=O)O` had a Ki of 28000 nM.

`C=C[C@@H]1C[C@]1(NC(=O)[C@@H]1C[C@@H](Oc2ccnc3ccccc23)CN1C(=O)[C@@H](NC(=O)OC(C)(C)C)C(C)(C)C)C(=O)O` gave a Ki of 140 nM. The compound `C=C[C@@H]1C[C@]1(NC(=O)[C@@H]1C[C@@H](Oc2cccc3ccccc23)CN1C(=O)[C@@H](NC(=O)OC(C)(C)C)C(C)(C)C)C(=O)O` gave a Ki of 310 nM. `C=C[C@@H]1C[C@]1(NC(=O)[C@@H]1C[C@@H](Oc2ccncc2)CN1C(=O)[C@@H](NC(=O)OC(C)(C)C)C(C)(C)C)C(=O)O` gave a Ki of 29000 nM. Compared with the last compound, the Ki is about 94-fold higher.

For `C=C[C@@H]1C[C@]1(NC(=O)[C@@H]1C[C@@H](Oc2ccccc2)CN1C(=O)[C@@H](NC(=O)OC(C)(C)C)C(C)(C)C)C(=O)O`, the Ki came to 29000 nM. Still for that read-out and setting: for `C=C[C@@H]1C[C@]1(NC(=O)[C@@H]1CCCN1C(=O)[C@@H](NC(=O)OC(C)(C)C)C(C)(C)C)C(=O)O` the value was greater than 600000 nM; for `COc1ccc2c(O[C@@H]3C[C@@H](C(=O)NC4(C(=O)O)CC4)N(C(=O)[C@@H](NC(=O)OC(C)(C)C)C(C)(C)C)C3)cc(-c3ccccc3)nc2c1`, 350 nM. Same read-out and setting: to `COc1ccc2c(O[C@@H]3C[C@@H](C(=O)NCC(=O)O)N(C(=O)[C@@H](NC(=O)OC(C)(C)C)C(C)(C)C)C3)cc(-c3ccccc3)nc2c1` belongs 56000 nM. Same read-out and setting: for `C=C[C@@H]1C[C@]1(NC(=O)[C@@H]1C[C@@H](Oc2cc(-c3ccccc3)nc3cc(OC)ccc23)CN1C(=O)[C@H](C)NC(=O)OC(C)(C)C)C(=O)O` the value was 310 nM; for `C=C[C@@H]1C[C@]1(NC(=O)[C@@H]1C[C@@H](Oc2cc(-c3ccccc3)nc3cc(OC)ccc23)CN1C(=O)CNC(=O)OC(C)(C)C)C(=O)O`, 3000 nM. Take `C=C[C@@H]1C[C@]1(NC(=O)[C@@H]1C[C@@H](Oc2cc(-c3ccccc3)nc3cc(OC)ccc23)CN1C(=O)CC(C)(C)C)C(=O)O`: the affinity, expressed as Ki, was 1600 nM. On the same count and under the same terms, to `CCC[C@H](NC(=O)[C@@H]1C[C@@H](OCc2ccccc2)CN1C(=O)[C@@H](NC(=O)[C@@H](NC(=O)[C@H](CC(=O)O)NC(=O)[C@H](CC(=O)O)NC(C)=O)[C@@H](C)CC)C(C)C)C(=O)O` (Ac-DDIV[Hyp](Bn)[Nva]-OH) belongs 1900 nM. As to H-DDIVPC-OH, the IC50 was found to be 71000 nM and the Ki was found to be 19000 nM.

These data come from ChEMBL document CHEMBL3120047, “Ligand bioactive conformation plays a critical role in the design of drugs that target the hepatitis C virus NS3 protease” (J Med Chem, 2014).
